Measured values taken from patent publication US11697648B2, “Fused pyrimidine pyridinone compounds as JAK inhibitors” (THERAVANCE BIOPHARMA R&D IP, LLC, priority 2019, dated 2023).

Biological target: JAK3 (Homo sapiens (Human), UniProt P52333)
Experiment: Biochemical JAK3 kinase assay (LanthaScreen)
Details: not given
Outline: (§1)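 GST-JAK + GFP-STAT1 peptide, HEPES pH 7.5/MgCl2/EGTA/Brij-35 buffer; cpd preincubation 1 h RT; ATP start, 1 h RT; stop with 10 mM EDTA + 2 nM Tb-anti-pSTAT1; TR-FRET 520/495. 4-parameter IC50 → pKi (Cheng-Prusoff).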

Chain of JAK3 (P52333 whole entry): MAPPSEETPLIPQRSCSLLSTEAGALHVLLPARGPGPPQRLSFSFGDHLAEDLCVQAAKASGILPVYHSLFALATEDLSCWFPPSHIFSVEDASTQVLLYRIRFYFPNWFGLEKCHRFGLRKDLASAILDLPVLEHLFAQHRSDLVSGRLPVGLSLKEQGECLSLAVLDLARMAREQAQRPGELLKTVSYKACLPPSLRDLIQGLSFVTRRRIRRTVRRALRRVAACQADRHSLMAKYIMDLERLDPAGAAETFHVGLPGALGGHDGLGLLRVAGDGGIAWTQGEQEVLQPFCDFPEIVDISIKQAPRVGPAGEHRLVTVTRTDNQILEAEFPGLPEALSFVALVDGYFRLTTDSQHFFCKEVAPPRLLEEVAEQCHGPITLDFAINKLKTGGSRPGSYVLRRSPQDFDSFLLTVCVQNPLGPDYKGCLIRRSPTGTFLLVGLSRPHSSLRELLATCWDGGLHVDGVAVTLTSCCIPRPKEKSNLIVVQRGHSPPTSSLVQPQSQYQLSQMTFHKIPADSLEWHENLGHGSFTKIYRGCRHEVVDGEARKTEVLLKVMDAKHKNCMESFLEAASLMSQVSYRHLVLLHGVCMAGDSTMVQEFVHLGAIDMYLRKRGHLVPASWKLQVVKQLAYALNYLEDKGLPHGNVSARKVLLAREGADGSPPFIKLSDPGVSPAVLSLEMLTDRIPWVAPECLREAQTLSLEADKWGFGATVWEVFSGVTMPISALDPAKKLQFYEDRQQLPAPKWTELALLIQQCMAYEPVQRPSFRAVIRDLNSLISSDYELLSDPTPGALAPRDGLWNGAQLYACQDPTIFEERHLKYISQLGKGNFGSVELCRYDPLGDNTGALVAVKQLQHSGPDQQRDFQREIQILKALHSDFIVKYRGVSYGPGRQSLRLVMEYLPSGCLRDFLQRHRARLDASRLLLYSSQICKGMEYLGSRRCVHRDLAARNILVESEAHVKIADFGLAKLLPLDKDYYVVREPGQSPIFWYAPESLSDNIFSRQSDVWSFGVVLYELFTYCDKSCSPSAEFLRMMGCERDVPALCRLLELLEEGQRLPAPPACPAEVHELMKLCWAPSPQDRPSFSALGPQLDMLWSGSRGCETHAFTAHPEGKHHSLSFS

Row | SMILES | JAK 3 (pKi)
1 | C=CC(=O)N1CC(CCn2c(=O)ccc3cnc(Nc4ccc(N5CCN(C)[C@H](C)C5)cc4)nc32)C1 [Example 162] | A (A represents a pKi value≥10 (Ki≤0.1 nM))
2 | C=CC(=O)N1CC(CCn2c(=O)ccc3cnc(Nc4ccc(N5CCN(C(C)=O)[C@@H](C)C5)cc4)nc32)C1 [Example 167] | A (A represents a pKi value≥10 (Ki≤0.1 nM))
3 | C=CC(=O)N1CCN(CCn2c(=O)ccc3cnc(Nc4ccc(N5CCN(S(=O)(=O)CCOC)CC5)cc4)nc32)[C@@H](C)C1 [Example 170] | A (A represents a pKi value≥10 (Ki≤0.1 nM))
4 | C=CC(=O)N1CCN(CCn2c(=O)ccc3cnc(Nc4ccc(N5CCN(C(=O)OC)CC5)cc4)nc32)[C@@H](C)C1 [Example 172] | B (B represents pKi value between 9 and 10 (Ki between 1 nM and 0.1 nM))
5 | C=CC(=O)N1CC(CCn2c(=O)ccc3cnc(Nc4ccc(N5C[C@@H](C)N(C(C)=O)[C@@H](C)C5)cc4)nc32)C1 [Example 178] | A (A represents a pKi value≥10 (Ki≤0.1 nM))
6 | C=CC(=O)N1CC(CCn2c(=O)ccc3cnc(Nc4ccc(N5CCN(C(C)=O)C(C)(C)C5)cc4)nc32)C1 [Example 179] | A (A represents a pKi value≥10 (Ki≤0.1 nM))

Same assay, conditions: selectivity JAK3 over JAK1, difference of pKi

Row | SMILES | JAK3 (pKi)-JAK1 (pKi)
7 | C=CC(=O)N1CC(CCn2c(=O)ccc3cnc(Nc4ccc(N5CCN(C)[C@H](C)C5)cc4)nc32)C1 [Example 162] | A (A represents a value of 3 or above)
8 | C=CC(=O)N1CC(CCn2c(=O)ccc3cnc(Nc4ccc(N5CCN(C(C)=O)[C@@H](C)C5)cc4)nc32)C1 [Example 167] | A (A represents a value of 3 or above)
9 | C=CC(=O)N1CCN(CCn2c(=O)ccc3cnc(Nc4ccc(N5CCN(S(=O)(=O)CCOC)CC5)cc4)nc32)[C@@H](C)C1 [Example 170] | A (A represents a value of 3 or above)
10 | C=CC(=O)N1CCN(CCn2c(=O)ccc3cnc(Nc4ccc(N5CCN(C(=O)OC)CC5)cc4)nc32)[C@@H](C)C1 [Example 172] | A (A represents a value of 3 or above)
11 | C=CC(=O)N1CC(CCn2c(=O)ccc3cnc(Nc4ccc(N5C[C@@H](C)N(C(C)=O)[C@@H](C)C5)cc4)nc32)C1 [Example 178] | A (A represents a value of 3 or above)
12 | C=CC(=O)N1CC(CCn2c(=O)ccc3cnc(Nc4ccc(N5CCN(C(C)=O)C(C)(C)C5)cc4)nc32)C1 [Example 179] | A (A represents a value of 3 or above)

System: Caco-2 cell monolayers
Experiment: Caco-2 permeation assay
Type: in vitro ADME
Details: 5 μM, A-B direction, with Verapamil (25 μM)
Outline: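 Passive A-to-B permeability with P-gp inhibited by verapamil (25 μM); compound at 5 μM, n=2. Both compartments sampled at t0 and t120 and quantified by LC-MS/MS, giving apparent permeability in cm/sec from flux, area and concentration.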

Row | SMILES | Caco Kp
13 | C=CC(=O)N1CC(CCn2c(=O)ccc3cnc(Nc4ccc(N5CCN(C)[C@H](C)C5)cc4)nc32)C1 [Example 162] | C (C represents a value between 10×10^−6 and 30×10^−6 cm/sec)
14 | C=CC(=O)N1CC(CCn2c(=O)ccc3cnc(Nc4ccc(N5CCN(C(C)=O)[C@@H](C)C5)cc4)nc32)C1 [Example 167] | A (A represents a value below 5×10^−6 cm/sec)
15 | C=CC(=O)N1CCN(CCn2c(=O)ccc3cnc(Nc4ccc(N5CCN(S(=O)(=O)CCOC)CC5)cc4)nc32)[C@@H](C)C1 [Example 170] | B (B represents a value between 5×10^−6 and 10×10^−6 cm/sec)
16 | C=CC(=O)N1CCN(CCn2c(=O)ccc3cnc(Nc4ccc(N5CCN(C(=O)OC)CC5)cc4)nc32)[C@@H](C)C1 [Example 172] | C (C represents a value between 10×10^−6 and 30×10^−6 cm/sec)
17 | C=CC(=O)N1CC(CCn2c(=O)ccc3cnc(Nc4ccc(N5C[C@@H](C)N(C(C)=O)[C@@H](C)C5)cc4)nc32)C1 [Example 178] | C (C represents a value between 10×10^−6 and 30×10^−6 cm/sec)
18 | C=CC(=O)N1CC(CCn2c(=O)ccc3cnc(Nc4ccc(N5CCN(C(C)=O)C(C)(C)C5)cc4)nc32)C1 [Example 179] | C (C represents a value between 10×10^−6 and 30×10^−6 cm/sec)

Biological target: JAK1 (Homo sapiens (Human), UniProt P23458)
Sequence (P23458 whole entry): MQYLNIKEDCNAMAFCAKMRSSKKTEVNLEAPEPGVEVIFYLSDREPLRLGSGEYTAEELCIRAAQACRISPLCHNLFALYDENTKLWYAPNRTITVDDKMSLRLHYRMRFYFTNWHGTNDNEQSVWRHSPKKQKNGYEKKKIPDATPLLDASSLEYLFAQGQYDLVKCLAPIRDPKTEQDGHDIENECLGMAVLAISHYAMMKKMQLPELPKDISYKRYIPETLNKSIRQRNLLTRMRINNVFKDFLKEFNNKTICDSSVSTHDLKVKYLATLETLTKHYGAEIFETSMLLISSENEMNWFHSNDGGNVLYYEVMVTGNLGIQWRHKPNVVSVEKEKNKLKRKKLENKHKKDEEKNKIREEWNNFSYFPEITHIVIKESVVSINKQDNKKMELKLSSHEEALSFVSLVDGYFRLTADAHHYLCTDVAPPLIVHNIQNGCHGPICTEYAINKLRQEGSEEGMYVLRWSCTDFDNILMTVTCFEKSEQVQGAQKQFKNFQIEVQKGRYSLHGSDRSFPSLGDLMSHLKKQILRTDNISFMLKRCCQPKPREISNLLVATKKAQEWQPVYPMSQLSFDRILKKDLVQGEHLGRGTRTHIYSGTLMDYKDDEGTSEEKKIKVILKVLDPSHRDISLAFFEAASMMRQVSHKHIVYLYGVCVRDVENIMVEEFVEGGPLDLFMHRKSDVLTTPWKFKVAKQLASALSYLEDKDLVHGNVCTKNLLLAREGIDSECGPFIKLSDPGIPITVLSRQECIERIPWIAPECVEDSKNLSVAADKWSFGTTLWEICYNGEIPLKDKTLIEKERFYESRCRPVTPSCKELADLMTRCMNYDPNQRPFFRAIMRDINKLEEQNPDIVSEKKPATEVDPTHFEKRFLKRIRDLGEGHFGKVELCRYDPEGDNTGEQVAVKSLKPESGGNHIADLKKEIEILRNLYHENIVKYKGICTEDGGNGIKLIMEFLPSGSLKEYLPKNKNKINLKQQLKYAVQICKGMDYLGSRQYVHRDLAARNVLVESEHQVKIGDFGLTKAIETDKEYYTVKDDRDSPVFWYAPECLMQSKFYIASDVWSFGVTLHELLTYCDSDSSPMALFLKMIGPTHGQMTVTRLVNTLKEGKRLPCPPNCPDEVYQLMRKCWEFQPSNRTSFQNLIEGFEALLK
Experiment: Biochemical JAK1 kinase assay (LanthaScreen)
Details: not given
Outline: as §1

Row | SMILES | JAK 1 (pKi)
19 | C=CC(=O)N1CC(CCn2c(=O)ccc3cnc(Nc4ccc(N5CCN(C)[C@H](C)C5)cc4)nc32)C1 [Example 162] | E (E represents a pKi value of 7 or below (Ki of 100 nM or above))
20 | C=CC(=O)N1CC(CCn2c(=O)ccc3cnc(Nc4ccc(N5CCN(C(C)=O)[C@@H](C)C5)cc4)nc32)C1 [Example 167] | E (E represents a pKi value of 7 or below (Ki of 100 nM or above))
21 | C=CC(=O)N1CCN(CCn2c(=O)ccc3cnc(Nc4ccc(N5CCN(S(=O)(=O)CCOC)CC5)cc4)nc32)[C@@H](C)C1 [Example 170] | E (E represents a pKi value of 7 or below (Ki of 100 nM or above))
22 | C=CC(=O)N1CCN(CCn2c(=O)ccc3cnc(Nc4ccc(N5CCN(C(=O)OC)CC5)cc4)nc32)[C@@H](C)C1 [Example 172] | E (E represents a pKi value of 7 or below (Ki of 100 nM or above))
23 | C=CC(=O)N1CC(CCn2c(=O)ccc3cnc(Nc4ccc(N5C[C@@H](C)N(C(C)=O)[C@@H](C)C5)cc4)nc32)C1 [Example 178] | E (E represents a pKi value of 7 or below (Ki of 100 nM or above))
24 | C=CC(=O)N1CC(CCn2c(=O)ccc3cnc(Nc4ccc(N5CCN(C(C)=O)C(C)(C)C5)cc4)nc32)C1 [Example 179] | E (E represents a pKi value of 7 or below (Ki of 100 nM or above))

System: IL-2 stimulated STAT5 phosphorylation in Tall-1 human T cell line (JAK3)
Experiment: Cellular JAK3 potency assay: inhibition of IL-2 stimulated pSTAT5 in Tall-1 T cells
Type: cell-based
Details: IL-2 stimulated pSTAT5, Tall-1 T cells
Outline: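 AlphaLISA SureFire Ultra measures STAT5 Tyr694/699 phosphorylation in lysed Tall-1 human T cells. Cells were exposed to compound for 1 h at 37 °C before a 30 min IL-2 challenge (300 ng/ml final). Values are pIC50 means with standard deviation from signal-versus-concentration curves.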

Row | SMILES | Tall-1 (pIC50)
25 | C=CC(=O)N1CC(CCn2c(=O)ccc3cnc(Nc4ccc(N5CCN(C)[C@H](C)C5)cc4)nc32)C1 [Example 162] | A (A represents a pIC50 value≥7.5 (IC50≤32 nM))
26 | C=CC(=O)N1CC(CCn2c(=O)ccc3cnc(Nc4ccc(N5CCN(C(C)=O)[C@@H](C)C5)cc4)nc32)C1 [Example 167] | B (B represents a pC50 value between 6.7 (included) and 7.5 (IC50 between 200 nM and 32 nM))
27 | C=CC(=O)N1CCN(CCn2c(=O)ccc3cnc(Nc4ccc(N5CCN(S(=O)(=O)CCOC)CC5)cc4)nc32)[C@@H](C)C1 [Example 170] | A (A represents a pIC50 value≥7.5 (IC50≤32 nM))
28 | C=CC(=O)N1CCN(CCn2c(=O)ccc3cnc(Nc4ccc(N5CCN(C(=O)OC)CC5)cc4)nc32)[C@@H](C)C1 [Example 172] | A (A represents a pIC50 value≥7.5 (IC50≤32 nM))
29 | C=CC(=O)N1CC(CCn2c(=O)ccc3cnc(Nc4ccc(N5C[C@@H](C)N(C(C)=O)[C@@H](C)C5)cc4)nc32)C1 [Example 178] | B (B represents a pC50 value between 6.7 (included) and 7.5 (IC50 between 200 nM and 32 nM))
30 | C=CC(=O)N1CC(CCn2c(=O)ccc3cnc(Nc4ccc(N5CCN(C(C)=O)C(C)(C)C5)cc4)nc32)C1 [Example 179] | B (B represents a pC50 value between 6.7 (included) and 7.5 (IC50 between 200 nM and 32 nM))

Biological target: JAK2 (Homo sapiens (Human), UniProt O60674)
Sequence (O60674 whole entry): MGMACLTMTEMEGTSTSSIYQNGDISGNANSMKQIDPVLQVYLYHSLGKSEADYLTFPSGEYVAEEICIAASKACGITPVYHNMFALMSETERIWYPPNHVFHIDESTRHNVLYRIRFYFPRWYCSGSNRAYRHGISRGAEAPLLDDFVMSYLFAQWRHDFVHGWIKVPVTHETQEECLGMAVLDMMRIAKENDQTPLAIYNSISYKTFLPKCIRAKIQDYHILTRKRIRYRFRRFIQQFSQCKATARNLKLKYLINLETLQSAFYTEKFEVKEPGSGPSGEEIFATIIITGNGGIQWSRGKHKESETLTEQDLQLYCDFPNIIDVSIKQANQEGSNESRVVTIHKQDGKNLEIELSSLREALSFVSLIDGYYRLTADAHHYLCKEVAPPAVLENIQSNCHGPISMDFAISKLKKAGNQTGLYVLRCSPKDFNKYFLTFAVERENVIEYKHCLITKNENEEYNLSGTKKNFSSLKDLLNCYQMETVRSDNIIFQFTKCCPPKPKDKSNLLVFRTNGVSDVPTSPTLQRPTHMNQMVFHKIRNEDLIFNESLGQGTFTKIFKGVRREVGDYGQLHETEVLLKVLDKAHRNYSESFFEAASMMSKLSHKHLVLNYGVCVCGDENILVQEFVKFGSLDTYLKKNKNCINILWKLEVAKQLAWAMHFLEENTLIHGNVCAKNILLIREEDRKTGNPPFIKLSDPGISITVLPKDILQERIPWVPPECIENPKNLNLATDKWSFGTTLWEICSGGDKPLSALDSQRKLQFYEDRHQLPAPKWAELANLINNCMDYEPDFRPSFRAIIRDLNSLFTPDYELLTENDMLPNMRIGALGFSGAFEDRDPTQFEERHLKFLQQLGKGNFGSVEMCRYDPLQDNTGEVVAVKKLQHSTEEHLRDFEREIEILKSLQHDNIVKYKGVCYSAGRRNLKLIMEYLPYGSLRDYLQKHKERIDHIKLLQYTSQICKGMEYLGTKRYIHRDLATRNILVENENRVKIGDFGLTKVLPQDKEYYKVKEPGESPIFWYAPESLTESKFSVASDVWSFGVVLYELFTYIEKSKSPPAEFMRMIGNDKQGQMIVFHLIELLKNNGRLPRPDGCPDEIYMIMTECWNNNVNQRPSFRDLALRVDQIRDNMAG
Experiment: Biochemical JAK2 kinase assay (LanthaScreen)
Details: not given
Outline: as §1

Row | SMILES | JAK 2 (pKi)
31 | C=CC(=O)N1CC(CCn2c(=O)ccc3cnc(Nc4ccc(N5CCN(C)[C@H](C)C5)cc4)nc32)C1 [Example 162] | E (E represents a pKi value of 7 or below (Ki of 100 nM or above))
32 | C=CC(=O)N1CC(CCn2c(=O)ccc3cnc(Nc4ccc(N5CCN(C(C)=O)[C@@H](C)C5)cc4)nc32)C1 [Example 167] | E (E represents a pKi value of 7 or below (Ki of 100 nM or above))
33 | C=CC(=O)N1CCN(CCn2c(=O)ccc3cnc(Nc4ccc(N5CCN(S(=O)(=O)CCOC)CC5)cc4)nc32)[C@@H](C)C1 [Example 170] | E (E represents a pKi value of 7 or below (Ki of 100 nM or above))
34 | C=CC(=O)N1CCN(CCn2c(=O)ccc3cnc(Nc4ccc(N5CCN(C(=O)OC)CC5)cc4)nc32)[C@@H](C)C1 [Example 172] | E (E represents a pKi value of 7 or below (Ki of 100 nM or above))
35 | C=CC(=O)N1CC(CCn2c(=O)ccc3cnc(Nc4ccc(N5C[C@@H](C)N(C(C)=O)[C@@H](C)C5)cc4)nc32)C1 [Example 178] | E (E represents a pKi value of 7 or below (Ki of 100 nM or above))
36 | C=CC(=O)N1CC(CCn2c(=O)ccc3cnc(Nc4ccc(N5CCN(C(C)=O)C(C)(C)C5)cc4)nc32)C1 [Example 179] | E (E represents a pKi value of 7 or below (Ki of 100 nM or above))

Biological target: Tyk2 (Homo sapiens (Human), UniProt P29597)
Sequence (P29597 whole entry): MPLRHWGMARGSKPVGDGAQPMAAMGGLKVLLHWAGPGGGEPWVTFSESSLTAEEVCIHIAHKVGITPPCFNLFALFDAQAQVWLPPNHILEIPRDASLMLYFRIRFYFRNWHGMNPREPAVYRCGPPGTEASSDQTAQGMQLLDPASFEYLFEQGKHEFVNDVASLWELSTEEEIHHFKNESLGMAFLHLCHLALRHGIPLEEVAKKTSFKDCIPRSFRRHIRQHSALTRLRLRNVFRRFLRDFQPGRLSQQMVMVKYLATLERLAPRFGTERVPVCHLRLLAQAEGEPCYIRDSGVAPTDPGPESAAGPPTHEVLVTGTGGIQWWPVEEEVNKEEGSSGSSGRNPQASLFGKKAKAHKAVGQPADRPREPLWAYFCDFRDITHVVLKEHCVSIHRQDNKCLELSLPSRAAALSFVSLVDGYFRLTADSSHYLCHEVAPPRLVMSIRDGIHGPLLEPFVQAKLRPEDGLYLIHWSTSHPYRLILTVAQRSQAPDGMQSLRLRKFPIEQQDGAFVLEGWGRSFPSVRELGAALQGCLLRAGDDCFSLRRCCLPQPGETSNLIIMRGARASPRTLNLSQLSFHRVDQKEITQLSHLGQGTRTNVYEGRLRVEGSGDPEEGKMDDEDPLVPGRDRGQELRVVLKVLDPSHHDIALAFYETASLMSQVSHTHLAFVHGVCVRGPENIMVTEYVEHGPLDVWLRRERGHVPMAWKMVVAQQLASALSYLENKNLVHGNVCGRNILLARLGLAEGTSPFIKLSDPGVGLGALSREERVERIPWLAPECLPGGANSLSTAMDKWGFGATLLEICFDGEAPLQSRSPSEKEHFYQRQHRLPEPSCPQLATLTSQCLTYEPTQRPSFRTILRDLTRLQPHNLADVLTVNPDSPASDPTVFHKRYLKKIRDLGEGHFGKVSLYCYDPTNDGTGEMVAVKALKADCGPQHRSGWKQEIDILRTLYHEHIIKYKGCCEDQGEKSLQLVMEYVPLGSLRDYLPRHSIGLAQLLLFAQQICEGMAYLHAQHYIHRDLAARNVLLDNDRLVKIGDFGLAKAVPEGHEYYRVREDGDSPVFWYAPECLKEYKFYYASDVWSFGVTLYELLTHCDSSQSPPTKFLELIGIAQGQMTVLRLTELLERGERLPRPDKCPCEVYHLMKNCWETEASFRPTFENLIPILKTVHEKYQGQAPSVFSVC
Experiment: Biochemical Tyk2 kinase assay (LanthaScreen)
Details: not given
Outline: as §1

Row | SMILES | Tyk 2 (pKi)
37 | C=CC(=O)N1CC(CCn2c(=O)ccc3cnc(Nc4ccc(N5CCN(C)[C@H](C)C5)cc4)nc32)C1 [Example 162] | E (E represents a pKi value of 7 or below (Ki of 100 nM or above))
38 | C=CC(=O)N1CC(CCn2c(=O)ccc3cnc(Nc4ccc(N5CCN(C(C)=O)[C@@H](C)C5)cc4)nc32)C1 [Example 167] | E (E represents a pKi value of 7 or below (Ki of 100 nM or above))
39 | C=CC(=O)N1CCN(CCn2c(=O)ccc3cnc(Nc4ccc(N5CCN(S(=O)(=O)CCOC)CC5)cc4)nc32)[C@@H](C)C1 [Example 170] | E (E represents a pKi value of 7 or below (Ki of 100 nM or above))
40 | C=CC(=O)N1CCN(CCn2c(=O)ccc3cnc(Nc4ccc(N5CCN(C(=O)OC)CC5)cc4)nc32)[C@@H](C)C1 [Example 172] | E (E represents a pKi value of 7 or below (Ki of 100 nM or above))
41 | C=CC(=O)N1CC(CCn2c(=O)ccc3cnc(Nc4ccc(N5C[C@@H](C)N(C(C)=O)[C@@H](C)C5)cc4)nc32)C1 [Example 178] | E (E represents a pKi value of 7 or below (Ki of 100 nM or above))
42 | C=CC(=O)N1CC(CCn2c(=O)ccc3cnc(Nc4ccc(N5CCN(C(C)=O)C(C)(C)C5)cc4)nc32)C1 [Example 179] | E (E represents a pKi value of 7 or below (Ki of 100 nM or above))
